Data published in ChEMBL document CHEMBL1250451, “Mechanistic insights into a Ca2+-dependent family of alpha-mannosidases in a human gut symbiont” (Nat Chem Biol, 2010).

Experiments:
Assay type in all cases: protein assay
[1] = target: T1, Alpha-1,2-mannosidase (BT_3990) (Bacteroides thetaiotaomicron) (UniProt Q8A0N1); assay: Activity of Bacteroides thetaiotaomicron GH92 alpha-mannosidase 3990 assessed as recovery of enzyme activity at 1 mM in presence of 7 mM V(3+) ions and in presence of 5 mM EDTA in 100 mM pH 7 MOPS buffer relative to enzyme activity in presence of calcium
T1 sequence (whole entry): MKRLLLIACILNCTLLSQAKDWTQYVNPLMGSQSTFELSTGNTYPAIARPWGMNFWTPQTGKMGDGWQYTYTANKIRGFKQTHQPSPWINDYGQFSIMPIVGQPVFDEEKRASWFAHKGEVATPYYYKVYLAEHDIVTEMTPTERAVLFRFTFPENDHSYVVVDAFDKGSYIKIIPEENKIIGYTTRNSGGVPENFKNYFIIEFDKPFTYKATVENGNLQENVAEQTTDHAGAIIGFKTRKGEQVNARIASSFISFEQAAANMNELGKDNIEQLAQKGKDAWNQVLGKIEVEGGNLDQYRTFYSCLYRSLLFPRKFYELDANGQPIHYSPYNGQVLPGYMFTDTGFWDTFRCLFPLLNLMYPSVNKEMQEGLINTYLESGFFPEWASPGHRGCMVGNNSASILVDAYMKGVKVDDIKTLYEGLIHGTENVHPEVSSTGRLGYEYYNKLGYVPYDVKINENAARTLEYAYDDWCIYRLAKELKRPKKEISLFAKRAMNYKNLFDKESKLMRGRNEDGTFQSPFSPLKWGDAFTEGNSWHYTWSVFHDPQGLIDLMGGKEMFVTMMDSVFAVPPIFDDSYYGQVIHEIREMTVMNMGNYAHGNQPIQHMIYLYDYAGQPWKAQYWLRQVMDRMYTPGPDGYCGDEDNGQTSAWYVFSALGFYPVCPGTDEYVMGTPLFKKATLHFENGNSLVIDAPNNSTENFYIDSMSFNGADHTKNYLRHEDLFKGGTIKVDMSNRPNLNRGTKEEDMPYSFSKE

[2] = target: T2, Alpha-1,2-mannosidase (BT_2199) (Bacteroides thetaiotaomicron) (UniProt Q8A5N9); assay: Activity of Bacteroides thetaiotaomicron GH92 alpha-mannosidase 2199 assessed as recovery of enzyme activity at 1 mM in presence of 7 mM Zn(2+) ions and in presence of 5 mM EDTA in 100 mM pH 7 MOPS buffer relative to enzyme activity in presence of calcium
T2 sequence (whole entry): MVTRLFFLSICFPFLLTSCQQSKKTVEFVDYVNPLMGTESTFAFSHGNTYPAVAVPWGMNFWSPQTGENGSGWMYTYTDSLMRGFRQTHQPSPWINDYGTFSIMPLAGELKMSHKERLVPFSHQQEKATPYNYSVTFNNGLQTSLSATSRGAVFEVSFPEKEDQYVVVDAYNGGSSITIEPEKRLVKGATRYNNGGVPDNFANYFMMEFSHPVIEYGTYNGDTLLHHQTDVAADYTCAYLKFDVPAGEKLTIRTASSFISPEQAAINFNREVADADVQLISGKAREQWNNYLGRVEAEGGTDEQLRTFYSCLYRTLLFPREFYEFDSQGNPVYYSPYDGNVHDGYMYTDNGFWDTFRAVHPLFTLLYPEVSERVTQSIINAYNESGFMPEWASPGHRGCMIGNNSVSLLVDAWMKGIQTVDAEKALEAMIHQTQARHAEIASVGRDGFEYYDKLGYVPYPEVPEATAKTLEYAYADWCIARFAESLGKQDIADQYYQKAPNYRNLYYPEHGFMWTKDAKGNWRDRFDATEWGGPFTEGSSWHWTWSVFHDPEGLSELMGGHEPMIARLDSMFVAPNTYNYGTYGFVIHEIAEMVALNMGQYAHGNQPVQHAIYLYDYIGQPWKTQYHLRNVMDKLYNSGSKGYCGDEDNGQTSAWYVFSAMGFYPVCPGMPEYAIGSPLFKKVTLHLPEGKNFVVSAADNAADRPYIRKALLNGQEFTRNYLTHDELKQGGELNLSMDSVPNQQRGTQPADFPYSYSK

[3] = target: T1, Alpha-1,2-mannosidase (BT_3990) (Bacteroides thetaiotaomicron); assay: Activity of Bacteroides thetaiotaomicron GH92 alpha-mannosidase 3990 assessed as recovery of enzyme activity at 1 mM in presence of 7 mM Co(2+) ions and in presence of 5 mM EGTA in 100 mM pH 7 MOPS buffer relative to enzyme activity in presence of calcium
[4] = target: T2, Alpha-1,2-mannosidase (BT_2199) (Bacteroides thetaiotaomicron); assay: Activity of Bacteroides thetaiotaomicron GH92 alpha-mannosidase 2199 assessed as recovery of enzyme activity at 1 mM in presence of 7 mM Be(2+) ions and in presence of 5 mM EGTA in 100 mM pH 7 MOPS buffer relative to enzyme activity in presence of calcium
[5] = target: T1, Alpha-1,2-mannosidase (BT_3990) (Bacteroides thetaiotaomicron); assay: Activity of Bacteroides thetaiotaomicron GH92 alpha-mannosidase 3990 assessed as recovery of enzyme activity at 1 mM in presence of 7 mM Sc(3+) ions and in presence of 5 mM EGTA in 100 mM pH 7 MOPS buffer relative to enzyme activity in presence of calcium
[6] = target: T1, Alpha-1,2-mannosidase (BT_3990) (Bacteroides thetaiotaomicron); assay: Activity of Bacteroides thetaiotaomicron GH92 alpha-mannosidase 3990 assessed as recovery of enzyme activity at 1 mM in presence of 7 mM Ba(2+) ions and in presence of 5 mM EDTA in 100 mM pH 7 MOPS buffer relative to enzyme activity in presence of calcium
[7] = target: T2, Alpha-1,2-mannosidase (BT_2199) (Bacteroides thetaiotaomicron); assay: Activity of Bacteroides thetaiotaomicron GH92 alpha-mannosidase 2199 assessed as recovery of enzyme activity at 1 mM in presence of 7 mM Be(2+) ions and in presence of 5 mM EDTA in 100 mM pH 7 MOPS buffer relative to enzyme activity in presence of calcium
[8] = target: T2, Alpha-1,2-mannosidase (BT_2199) (Bacteroides thetaiotaomicron); assay: Activity of Bacteroides thetaiotaomicron GH92 alpha-mannosidase 2199 assessed as recovery of enzyme activity at 1 mM in presence of 7 mM Ca(2+) ions and in presence of 5 mM EGTA in 100 mM pH 7 MOPS buffer relative to enzyme activity in presence of calcium
[9] = target: T2, Alpha-1,2-mannosidase (BT_2199) (Bacteroides thetaiotaomicron); assay: Activity of Bacteroides thetaiotaomicron GH92 alpha-mannosidase 2199 assessed as recovery of enzyme activity at 1 mM in presence of 7 mM Ti(3+) ions and in presence of 5 mM EGTA in 100 mM pH 7 MOPS buffer relative to enzyme activity in presence of calcium
[10] = target: T1, Alpha-1,2-mannosidase (BT_3990) (Bacteroides thetaiotaomicron); assay: Activity of Bacteroides thetaiotaomicron GH92 alpha-mannosidase 3990 assessed as recovery of enzyme activity at 1 mM in presence of 7 mM Ti(3+) ions and in presence of 5 mM EGTA in 100 mM pH 7 MOPS buffer relative to enzyme activity in presence of calcium
[11] = target: T2, Alpha-1,2-mannosidase (BT_2199) (Bacteroides thetaiotaomicron); assay: Activity of Bacteroides thetaiotaomicron GH92 alpha-mannosidase 2199 assessed as recovery of enzyme activity at 1 mM in presence of 7 mM Sc(3+) ions and in presence of 5 mM EDTA in 100 mM pH 7 MOPS buffer relative to enzyme activity in presence of calcium

O=[N+]([O-])c1ccc(O[C@H]2O[C@H](CO)[C@@H](O)[C@H](O)[C@@H]2O)cc1
Activity [1]: 0%
Activity [2]: 0%
Activity [3]: 11%
Activity [4]: 0%
Activity [5]: 0%
Activity [6]: 0%
Activity [7]: 0%
Activity [8]: 100%
Activity [9]: 0%
Activity [10]: 0%
Activity [11]: 0%
